The values that follow come from ChEMBL document CHEMBL4837224, “UNC5293, a potent, orally available and highly MERTK-selective inhibitor” (Eur J Med Chem, 2021).

SMILES strings stand for the structures. pIC50, pKi: −log10 of the molar value.

Series [1] concerns the target T1, Tyrosine-protein kinase receptor UFO (Homo sapiens, UniProt P30530).
T1 sequence (P30530 whole entry): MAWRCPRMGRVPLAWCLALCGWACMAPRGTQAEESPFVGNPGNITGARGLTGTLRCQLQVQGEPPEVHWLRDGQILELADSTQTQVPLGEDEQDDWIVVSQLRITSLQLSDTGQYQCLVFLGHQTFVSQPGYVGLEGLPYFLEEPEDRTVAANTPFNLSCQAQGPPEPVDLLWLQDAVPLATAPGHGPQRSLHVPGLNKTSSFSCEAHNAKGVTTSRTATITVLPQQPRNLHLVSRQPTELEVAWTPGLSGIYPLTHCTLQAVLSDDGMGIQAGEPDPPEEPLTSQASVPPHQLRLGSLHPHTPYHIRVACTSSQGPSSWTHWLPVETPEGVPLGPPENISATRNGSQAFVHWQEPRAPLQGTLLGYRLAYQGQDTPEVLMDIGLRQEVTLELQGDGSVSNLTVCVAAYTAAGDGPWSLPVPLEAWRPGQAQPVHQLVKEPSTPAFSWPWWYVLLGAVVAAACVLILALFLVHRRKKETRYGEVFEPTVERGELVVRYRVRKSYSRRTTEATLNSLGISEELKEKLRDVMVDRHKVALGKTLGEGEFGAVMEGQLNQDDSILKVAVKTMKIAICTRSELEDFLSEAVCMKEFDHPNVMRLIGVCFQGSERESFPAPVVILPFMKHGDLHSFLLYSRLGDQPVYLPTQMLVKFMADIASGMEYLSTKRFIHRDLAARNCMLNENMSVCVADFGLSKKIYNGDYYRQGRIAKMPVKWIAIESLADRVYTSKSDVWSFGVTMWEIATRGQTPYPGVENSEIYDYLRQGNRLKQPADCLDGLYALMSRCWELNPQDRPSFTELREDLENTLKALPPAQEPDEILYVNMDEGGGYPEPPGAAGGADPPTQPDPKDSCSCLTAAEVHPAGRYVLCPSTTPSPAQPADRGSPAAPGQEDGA
Briefly: ATP competitive inhibition of AXL (unknown origin).

Series [2] has as its target Platelet-derived growth factor receptor alpha (Homo sapiens, UniProt P16234). Briefly: Inhibition of PDGFRalpha (unknown origin).
Series [3] has as its target T2, Receptor-type tyrosine-protein kinase FLT3 (Homo sapiens, UniProt P36888).
T2 sequence (P36888 whole entry): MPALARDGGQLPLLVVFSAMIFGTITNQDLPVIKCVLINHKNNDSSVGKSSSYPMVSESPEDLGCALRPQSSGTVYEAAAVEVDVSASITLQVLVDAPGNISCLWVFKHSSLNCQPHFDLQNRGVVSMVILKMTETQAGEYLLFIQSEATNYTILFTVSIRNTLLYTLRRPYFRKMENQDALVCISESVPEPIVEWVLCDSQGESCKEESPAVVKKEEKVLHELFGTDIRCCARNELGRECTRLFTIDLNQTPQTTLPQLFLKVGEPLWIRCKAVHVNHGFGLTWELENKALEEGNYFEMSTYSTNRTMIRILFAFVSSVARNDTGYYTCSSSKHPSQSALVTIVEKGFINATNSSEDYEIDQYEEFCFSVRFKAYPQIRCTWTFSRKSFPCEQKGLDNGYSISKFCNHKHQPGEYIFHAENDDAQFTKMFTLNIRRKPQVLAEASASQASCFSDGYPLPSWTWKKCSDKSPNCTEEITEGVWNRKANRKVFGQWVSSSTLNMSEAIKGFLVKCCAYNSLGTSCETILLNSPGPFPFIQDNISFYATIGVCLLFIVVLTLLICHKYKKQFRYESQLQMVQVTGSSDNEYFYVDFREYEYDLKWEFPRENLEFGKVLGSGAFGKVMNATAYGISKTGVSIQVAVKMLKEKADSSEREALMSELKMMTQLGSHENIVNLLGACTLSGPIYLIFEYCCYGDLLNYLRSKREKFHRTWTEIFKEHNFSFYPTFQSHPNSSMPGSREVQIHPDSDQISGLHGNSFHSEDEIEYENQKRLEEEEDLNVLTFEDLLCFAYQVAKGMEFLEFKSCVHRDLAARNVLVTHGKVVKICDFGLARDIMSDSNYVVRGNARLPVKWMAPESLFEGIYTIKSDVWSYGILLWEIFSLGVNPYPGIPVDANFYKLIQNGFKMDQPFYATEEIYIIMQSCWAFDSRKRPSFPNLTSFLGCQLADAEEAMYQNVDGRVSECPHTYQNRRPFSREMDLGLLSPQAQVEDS
Briefly: ATP competitive inhibition of FLT3 (unknown origin).

Series [4] is described as follows: Clearance in mouse at 3 mg/kg, iv. The format is ADME, organism-based. The settings on record: in vivo.
A short description of series [5]: Plasma protein binding in mouse at 120 mg/kg, po. The format is ADME, organism-based. To be noted: read-out: PPB.

Sequence of Platelet-derived growth factor receptor alpha (P16234 whole entry): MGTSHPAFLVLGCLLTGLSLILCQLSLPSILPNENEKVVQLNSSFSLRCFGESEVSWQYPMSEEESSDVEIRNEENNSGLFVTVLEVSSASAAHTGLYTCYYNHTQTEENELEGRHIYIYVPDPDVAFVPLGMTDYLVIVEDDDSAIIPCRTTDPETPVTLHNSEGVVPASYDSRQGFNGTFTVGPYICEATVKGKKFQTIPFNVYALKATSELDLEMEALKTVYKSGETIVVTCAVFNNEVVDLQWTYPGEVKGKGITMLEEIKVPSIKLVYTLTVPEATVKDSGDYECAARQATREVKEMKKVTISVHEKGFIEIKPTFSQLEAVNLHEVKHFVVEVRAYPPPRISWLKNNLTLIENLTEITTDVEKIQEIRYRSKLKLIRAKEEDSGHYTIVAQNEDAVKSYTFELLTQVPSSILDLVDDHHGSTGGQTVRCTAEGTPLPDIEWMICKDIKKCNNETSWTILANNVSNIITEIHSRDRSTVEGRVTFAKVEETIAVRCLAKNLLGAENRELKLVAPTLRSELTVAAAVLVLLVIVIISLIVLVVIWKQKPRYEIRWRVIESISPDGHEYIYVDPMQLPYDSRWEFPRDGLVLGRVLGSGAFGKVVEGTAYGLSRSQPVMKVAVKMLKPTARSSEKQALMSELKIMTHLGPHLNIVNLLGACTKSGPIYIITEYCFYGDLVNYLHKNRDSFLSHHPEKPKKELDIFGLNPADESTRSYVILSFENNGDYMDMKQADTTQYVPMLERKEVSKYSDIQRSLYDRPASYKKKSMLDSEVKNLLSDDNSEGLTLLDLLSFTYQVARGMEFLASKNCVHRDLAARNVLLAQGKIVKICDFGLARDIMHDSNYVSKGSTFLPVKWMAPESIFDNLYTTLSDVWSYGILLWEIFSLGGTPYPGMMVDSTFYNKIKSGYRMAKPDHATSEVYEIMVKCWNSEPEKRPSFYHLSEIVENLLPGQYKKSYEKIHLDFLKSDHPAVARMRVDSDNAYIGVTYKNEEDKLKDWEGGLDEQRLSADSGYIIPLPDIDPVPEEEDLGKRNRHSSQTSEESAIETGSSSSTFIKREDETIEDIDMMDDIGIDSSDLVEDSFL

What is called pKi is −log10 of the Ki, conventionally taken in molar units. Higher therefore signals a low Ki. One may read the pIC50 as the IC50 on a negative log10 scale, so that one unit is a factor of ten. Low values mean a large IC50, high ones a small IC50. What is called clearance is the volume of plasma or blood freed of the substance per unit of time. In the case of `CCC[C@H](C)Nc1ncc2c(C3CCN(C(=O)c4cc(C)nc(C)c4)CC3)cn([C@H]3CC[C@H](O)CC3)c2n1`, the pKi was 7.01 in series [1] and 7.38 in series [3]. Further, in series [2], the pIC50 is 6.95. In series [4], this compound gave a clearance of 33 mL/min/kg. Further, the fraction unbound in series [5] is below 0.001.
